Measured values from article PMC9516332 (Frontiers in Oncology, 2022).
Where two headings read alike, the source gives them in different places.

How the values were obtained:
Test in all cases: Kinase panel profiling at 1 µmol/L (MSA or IMAP), percentage inhibition
Format in all cases: biochemical
[1] = biological target: panel of 255 wild-type kinases (Homo sapiens, UniProt O14578); conditions: read-out: %-inhibition at 1 µmol/L, CRIK
[2] = biological target: panel of 255 wild-type kinases (Homo sapiens, UniProt O75582); conditions: read-out: %-inhibition, MSK1
[3] = biological target: panel of 255 wild-type kinases (Homo sapiens, UniProt P05771); conditions: read-out: %-inhibition at 1 µmol/L, PKCβ1
[4] = biological target: panel of 255 wild-type kinases (Homo sapiens, UniProt P08922); conditions: read-out: %-inhibition at 1 µmol/L, ROS
[5] = biological target: panel of 255 wild-type kinases (Homo sapiens, UniProt P14616); conditions: read-out: %-inhibition at 1 µmol/L, IRR
[6] = biological target: panel of 255 wild-type kinases (Homo sapiens, UniProt P29376); conditions: read-out: %-inhibition at 1 µmol/L, LTK
[7] = biological target: panel of 255 wild-type kinases (Homo sapiens, UniProt P41240); conditions: read-out: %-inhibition at 1 µmol/L, CSK
[8] = biological target: panel of 255 wild-type kinases (Homo sapiens, UniProt P45984); conditions: read-out: %-inhibition at 1 µmol/L, JNK2
[9] = biological target: panel of 255 wild-type kinases (Homo sapiens, UniProt Q00535); conditions: read-out: %-inhibition CDK5/p25
[10] = biological target: panel of 255 wild-type kinases (Homo sapiens, UniProt Q8IU85); conditions: read-out: %-inhibition CaMK1δ
[11] = biological target: T1, panel of 255 wild-type kinases (Homo sapiens, UniProt Q96L34); conditions: read-out: %-inhibition, MARK4
T1 sequence (Q96L34 1-752): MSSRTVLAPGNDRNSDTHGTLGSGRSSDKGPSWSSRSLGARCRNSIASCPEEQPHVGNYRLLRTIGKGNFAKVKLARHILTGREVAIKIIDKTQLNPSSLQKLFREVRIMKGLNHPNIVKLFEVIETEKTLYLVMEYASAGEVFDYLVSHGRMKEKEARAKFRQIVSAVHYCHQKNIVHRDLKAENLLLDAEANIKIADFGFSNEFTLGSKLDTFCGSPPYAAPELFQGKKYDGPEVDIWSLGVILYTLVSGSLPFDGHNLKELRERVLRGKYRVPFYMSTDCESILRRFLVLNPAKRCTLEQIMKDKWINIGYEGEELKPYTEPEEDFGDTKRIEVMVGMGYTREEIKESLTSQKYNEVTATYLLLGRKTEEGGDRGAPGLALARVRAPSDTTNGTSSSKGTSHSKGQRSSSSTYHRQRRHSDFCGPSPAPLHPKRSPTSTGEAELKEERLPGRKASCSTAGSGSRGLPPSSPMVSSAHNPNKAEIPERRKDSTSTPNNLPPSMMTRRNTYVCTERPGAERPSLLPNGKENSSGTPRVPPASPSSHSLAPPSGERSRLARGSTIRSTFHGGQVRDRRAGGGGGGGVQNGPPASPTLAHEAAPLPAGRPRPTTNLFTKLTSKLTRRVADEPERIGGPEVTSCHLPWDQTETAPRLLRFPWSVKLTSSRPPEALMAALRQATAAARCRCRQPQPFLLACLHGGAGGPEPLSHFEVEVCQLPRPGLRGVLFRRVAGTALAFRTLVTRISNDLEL

[12] = biological target: T2, panel of 255 wild-type kinases (Homo sapiens, UniProt Q9BZL6); conditions: read-out: %-inhibition at 1 µmol/L, PKD2
T2 sequence (Q9BZL6 1-878): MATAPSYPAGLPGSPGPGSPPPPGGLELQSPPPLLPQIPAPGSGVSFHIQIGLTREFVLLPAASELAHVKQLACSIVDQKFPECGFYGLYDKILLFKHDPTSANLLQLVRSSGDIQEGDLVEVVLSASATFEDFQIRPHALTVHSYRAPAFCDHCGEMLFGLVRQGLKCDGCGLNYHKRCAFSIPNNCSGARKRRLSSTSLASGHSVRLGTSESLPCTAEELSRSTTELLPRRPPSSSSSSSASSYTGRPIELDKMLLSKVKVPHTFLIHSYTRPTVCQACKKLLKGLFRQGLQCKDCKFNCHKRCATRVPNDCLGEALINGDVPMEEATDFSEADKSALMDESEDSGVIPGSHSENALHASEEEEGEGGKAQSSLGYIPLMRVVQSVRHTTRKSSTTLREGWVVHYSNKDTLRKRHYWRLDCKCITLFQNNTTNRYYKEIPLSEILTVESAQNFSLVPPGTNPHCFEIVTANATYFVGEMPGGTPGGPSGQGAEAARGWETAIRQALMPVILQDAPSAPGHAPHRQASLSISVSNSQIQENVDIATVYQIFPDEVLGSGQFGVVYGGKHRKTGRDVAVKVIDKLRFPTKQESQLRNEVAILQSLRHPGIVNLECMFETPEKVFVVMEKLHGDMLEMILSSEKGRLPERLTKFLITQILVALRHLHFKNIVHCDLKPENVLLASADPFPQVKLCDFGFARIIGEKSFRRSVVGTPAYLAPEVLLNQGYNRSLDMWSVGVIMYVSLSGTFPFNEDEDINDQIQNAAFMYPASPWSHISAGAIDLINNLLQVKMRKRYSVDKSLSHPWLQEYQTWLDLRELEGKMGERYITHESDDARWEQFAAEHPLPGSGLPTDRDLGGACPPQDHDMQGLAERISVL

[13] = biological target: panel of 255 wild-type kinases (Homo sapiens, UniProt Q9UKE5); conditions: read-out: %-inhibition at 1 µmol/L, TNIK
[14] = biological target: panel of 255 wild-type kinases (Homo sapiens, UniProt Q9UM73); conditions: read-out: %-inhibition ALK
[15] = kinase CRIK, 1 µmol/L single concentration
[16] = MSK1, 1 µmol/L single concentration
[17] = kinase PKCβ1, 1 µmol/L single concentration
[18] = kinase ROS, 1 µmol/L single concentration
[19] = kinase IRR, 1 µmol/L single concentration
[20] = kinase LTK, 1 µmol/L single concentration
[21] = kinase CSK, 1 µmol/L single concentration
[22] = kinase JNK2, 1 µmol/L single concentration
[23] = CDK5/p25 kinase assay, 1 µmol/L single concentration
[24] = CaMK1δ kinase assay, 1 µmol/L single concentration
[25] = MARK4, 1 µmol/L single concentration
[26] = kinase PKD2, 1 µmol/L single concentration
[27] = kinase TNIK, 1 µmol/L single concentration
[28] = ALK kinase assay, 1 µmol/L single concentration

Compound | inhibition at 1 µM [1, 15] [%] | inhibition at 1 µM [2, 16] [%] | inhibition at 1 µM [3, 17] [%] | inhibition at 1 µM [4, 18] [%] | inhibition at 1 µM [5, 19] [%] | inhibition at 1 µM [6, 20] [%] | inhibition at 1 µM [7, 21] [%] | inhibition at 1 µM [8, 22] [%] | inhibition at 1 µM [9, 23] [%] | inhibition at 1 µM [10, 24] [%] | inhibition at 1 µM [11, 25] [%] | inhibition at 1 µM [12, 26] [%] | inhibition at 1 µM [13, 27] [%] | inhibition at 1 µM [14, 28] [%] | also measured
Cc1nc(NC(=O)N2CCC[C@H]2C(N)=O)sc1-c1ccnc(C(C)(C)C(F)(F)F)c1 [alpelisib] | -5.56 | -8 | 7 | -6 | 7 | -2.85 | -0.289 | 0.494 | -14 | 2 | 0.414 | -20 | 4.6 | 1.84 | 
Cn1cc(-c2cc3c(N4CCN(c5ncc([C@@](C)(N)c6ccc(F)cc6)cn5)CC4)ncnn3c2)cn1 [avapritinib] | -0.548 | 2.36 | 1.74 | 67 | 2.37 | 51 | 2.57 | 1.1 | 11 | -4.32 | -5.63 | -0.865 | 30 | 35 | 
Cn1cnc2c(F)c(Nc3ccc(Br)cc3F)c(C(=O)NOCCO)cc21 [binimetinib] | -3.44 | 10 | -3.39 | 16 | -5.48 | 0.411 | -1.11 | -5.47 | -21 | -8 | -4 | -7 | 0.137 | 6.37 | 
CNC(=O)c1ccc(-c2cnc3ncc(Cc4ccc5ncccc5c4)n3n2)cc1F [capmatinib] |  |  |  |  |  |  |  |  |  |  |  |  |  |  | inhibition at 1 µM [1]: -4.75%; inhibition at 1 µM [2]: 4%; inhibition at 1 µM [3]: 1.2%; inhibition at 1 µM [4]: 21%; inhibition at 1 µM [5]: 4%; inhibition at 1 µM [6]: 49%; inhibition at 1 µM [7]: -9%; inhibition at 1 µM [8]: -0.668%; inhibition at 1 µM [9]: -20%; inhibition at 1 µM [10]: -10%; inhibition at 1 µM [11]: 6%; inhibition at 1 µM [12]: -7.47%; inhibition at 1 µM [13]: 1.68%; inhibition at 1 µM [14]: 28%
COc1cc2ncnc(Nc3ccc(F)c(Cl)c3)c2cc1NC(=O)/C=C/CN1CCCCC1 [dacomitinib] | 32 | 1.13 | 3.74 | 22 | 6 | 21 | 18 | 1.27 | -29 | 1.43 | 4.31 | 10 | 27 | 17 | 
CN1CCN(c2ccc(C(=O)Nc3n[nH]c4ccc(Cc5cc(F)cc(F)c5)cc34)c(NC3CCOCC3)c2)CC1 [entrectinib] | -9 | 0.468 | 12 |  | 100 | 100 | 8 | 7 |  | 16 | 15 | -24 | 20 | 100 | 
CCN1CCN(c2ccc(Nc3cc(N(C)C(=O)Nc4c(Cl)c(OC)cc(OC)c4Cl)ncn3)cc2)CC1 [infigratinib] | -2.56 | 2.27 | 5 | 29 | 34 | 60 | 2.24 | 2.8 | -17 | 2.23 | -3 | -4.21 |  | 43 | 
C[C@H]1Oc2cc(cnc2N)-c2c(nn(C)c2C#N)CN(C)C(=O)c2ccc(F)cc21 [lorlatinib] | -1.22 | -8 | 7 | 101 | 78 |  | 1.12 | 3.24 | -9 | 7 | 18 | -11 | 7 |  | 
Cn1cnc2c(F)c(Nc3ccc(Br)cc3Cl)c(C(=O)NOCCO)cc21 [selumetinib] | -2.33 | 3 | 2.44 | 15 | 2.15 | 53 | 0.0795 | -2.13 | -11 | -3.34 | -11 | -15 | 2.3 |  | 
C=CC(=O)N1CCC([C@@H]2CCNc3c(C(N)=O)c(-c4ccc(Oc5ccccc5)cc4)nn32)CC1 [zanubrutinib] | -2.4 | 0.565 | 0.363 | 1.9 | 2.69 | 0.209 |  | -1.18 | -17 | -1.26 | -7.42 | 2.31 | 6.44 | 2.23 | 
